Laboratory results published in patent US11964996B2, “2-alkynylmannose derivative and application thereof” (priority 2020, dated 2024).

Biological target: T1, FimH proteins (Escherichia coli, UniProt Q1R2J4)
T1 construct: endogenous in cells; host or cells: UPEC strain UTI89 (whole bacteria)
Experiment: hemagglutination inhibition (HAI) assay: UPEC UTI89 with guinea pig red blood cells
Type: cell-based, uropathogenic Escherichia coli (UPEC) UTI89
Settings: read-out: HAI EC90 (minimum concentration for inhibiting hemagglutination)
Experimental: In the present example, the mannose derivatives A1 to A107 that were prepared in Examples 1 to 12 were analyzed in hemagglutination inhibition (HAI) assays to determine inhibitory effects of the compounds on the function/activity of FimH proteins.
1. Preparation of a guinea pig red blood cell solution: an adult guinea pig was anesthetized with ethyl ether, blood was sampled from the heart, placed in an EDTA blood collection tube, and centrifuged at 2,000 rpm for 5 min, serum was removed, the sample was transferred in a centrifuge tube (15 mL), sterilized PBS was added, the sample was centrifuged at 1,500 rpm for 10 min, a supernatant was removed, the sample was transferred in a centrifuge tube (50 mL), PBS was added, the sample was centrifuged at 1,500 rpm for 10 min and repeatedly washed twice, and red blood cells were slightly aspirated into a new centrifuge tube (50 mL) to obtain a 5% guinea pig red blood cell solution.
2. Preparation of a bacteria solution: a UPEC cell line UTI89 was inoculated on a medium plate and cultured in an incubator at 37° C. overnight. Single colonies were picked and inoculated in an LB medium in a sterilized conical flask, and cultured at 37° C. and 170 r/min overnight. When an OD value at 540 nm was about 0.8 on a microplate reader, the bacterial concentration was about 10^8-10^9 cfu/mL, the bacteria solution was centrifuged at 2,000 rpm for 10 min, a supernatant was removed, and 1 mL of bacteria solution was prepared into 0.1 mL of PBS bacteria solution. […] The bacteria and the medium were uniformly mixed by shaking, and reacted in an incubator at 25° C. for about 20-40 min. When the plate was read, the wells in which complete agglutination occurred were used as 4HAU for the hemagglutination titer of the bacteria. For example, if the endpoint titer of hemagglutination is 1:256, the dilution multiple of the 4HAU antigen is 1:64 (256 divided by 4). Bacteria solutions at corresponding concentrations were prepared according to the experimental results.
3. Activity assay: a compound to be tested or a standard product was placed in a 96-well microtest plate, 50 μL of drug at an initial concentration of 200 μM was placed in the first well, and from the second well, 25 μL of PBS was added to each well to dilute the drug in proportion. The drug and the medium in the first well were mixed, 25 μL of mixed drug solution was placed in the second well, the drug solution was diluted in sequence to the last well, and 25 μL of drug solution was removed. 25 μL of bacteria solution was placed in each well of the culture plate containing the diluted drug, and cultured at 37° C. for 40 min. 25 μL of 5% guinea pig red blood cell suspension was placed in each well, and slightly uniformly mixed with the drug, and the plate was placed at 4° C. for about 1 h. When results were determined, the plate was tilted 60°, and whether the red blood cells flowed like teardrops was observed.
Mannosyl proteins are expressed on the surface of red blood cells in a guinea pig, which can bind to FimH proteins of UTI89 to cause hemagglutination. It can be observed with the naked eyes that the red blood cells form film-like agglutination at the bottom of the well, and loose red dots can be seen in the center. The FimH protein inhibitor competitively binds to FimH proteins to inhibit hemagglutination. It can be observed with the naked eyes that all the red blood cells sink and concentrate at the bottom of the well to form dense dots. The minimum concentration for inhibiting hemagglutination is expressed as an EC90 value of a compound. The final concentration of the compound in the first well is 66700 nM, the concentration in the second well is half that in the first well, the concentration in the third well is half that in the second well, and so on. […] A low EC90 value indicates high activity of a compound.

| Structure (SMILES) | EC90 [nM] |
| --- | --- |
| C#C[C@H]1O[C@H](CO)[C@@H](O)[C@H](O)[C@@]1(O)C#Cc1ccccc1 [Compound A14] | 4160 |
| Cc1ccccc1O[C@H]1O[C@H](CO)[C@@H](O)[C@H](O)[C@@]1(O)C#Cc1ccccc1 [Compound A5] | 520 |
| CS(=O)(=O)c1cccc(C#C[C@@]2(O)[C@@H](C#Cc3ccccc3)O[C@H](CO)[C@@H](O)[C@@H]2O)c1 [Compound A22] | 130 |
| CCC(C)O[C@H]1O[C@H](CO)[C@@H](O)[C@H](O)[C@@]1(O)C#Cc1cccc(Cl)c1 (stereo partly shown) [Compound A57] | 260 |
| CC(n1cc(C#C[C@H]2O[C@H](CO)[C@@H](O)[C@H](O)[C@@]2(O)C#Cc2ccccc2)cn1)C(F)(F)F (stereo partly shown) [Compound A63] | 16 |
| OC[C@H]1O[C@H](C#Cc2cnn(-c3ccc(C4CC4)cc3)c2)[C@](O)(C#CC2CC2)[C@@H](O)[C@@H]1O [Compound A105] | 0.13 |
| CC#C[C@H]1O[C@H](CO)[C@@H](O)[C@H](O)[C@@]1(O)C#Cc1ccccc1 [Compound A15] | 520 |
| OC[C@H]1O[C@H](C#Cc2cnn(CC3CC3)c2)[C@](O)(C#Cc2ccccc2)[C@@H](O)[C@@H]1O [Compound A42] | 4 |
| OC[C@H]1O[C@H](C#Cc2cnn([C@@H]3C[C@H]4C[C@H]4C3)c2)[C@](O)(C#Cc2ccccc2)[C@@H](O)[C@@H]1O [Compound A61] | 8 |
| OC[C@H]1O[C@H](C#Cc2cnn(-c3ccc(O[C@H]4CCOC4)cc3)c2)[C@](O)(C#Cc2ccccc2)[C@@H](O)[C@@H]1O [Compound A104] | < 0.1 |
| OC[C@H]1O[C@H](C#Cc2cnn(C3CCCC3)c2)[C@](O)(C#Cc2ccccc2)[C@@H](O)[C@@H]1O [Compound A45] | 1 |
| CCC(C)O[C@H]1O[C@H](CO)[C@@H](O)[C@H](O)[C@@]1(O)C#Cc1ccccc1 (stereo partly shown) [Compound A7] | 260 |
| Cn1cc(C#C[C@H]2O[C@H](CO)[C@@H](O)[C@H](O)[C@@]2(O)C#Cc2ccccc2)cn1 [Compound A34] | 64 |
| OC[C@H]1O[C@H](C#Cc2cnn([C@H]3C[C@H]4C[C@H]4C3)c2)[C@](O)(C#Cc2ccccc2)[C@@H](O)[C@@H]1O [Compound A62] | 0.5 |
| CC(C)c1cccc(C#C[C@H]2O[C@H](CO)[C@@H](O)[C@H](O)[C@@]2(O)C#Cc2ccccc2)c1 [Compound A26] | 130 |
| OC[C@H]1O[C@H](C#Cc2cnn(-c3ccccc3)c2)[C@](O)(C#CC2CC2)[C@@H](O)[C@@H]1O [Compound A88] | 4 |
| CCC(C)O[C@H]1O[C@H](CO)[C@@H](O)[C@H](O)[C@@]1(O)C#Cc1ccc(F)cc1 (stereo partly shown) [Compound A56] | 520 |
| CNC(=O)c1cccc(-c2ccc(O[C@H]3O[C@H](CO)[C@@H](O)[C@H](O)[C@@]3(O)C#CC3CC3)c(C)c2)c1 [Compound A2] | 16 |
| Cn1cc(C#C[C@@]2(O)[C@@H](C#Cc3cnn(-c4ccc(Cl)cc4)c3)O[C@H](CO)[C@@H](O)[C@@H]2O)cn1 [Compound A74] | 0.13 |
| OC[C@H]1O[C@H](C#Cc2cnn(C3CCC3)c2)[C@](O)(C#Cc2ccccc2)[C@@H](O)[C@@H]1O [Compound A44] | 8 |
| OC[C@H]1O[C@H](C#Cc2cnn(-c3ccc(O[C@H]4CCOC4)cc3)c2)[C@](O)(C#CC2CC2)[C@@H](O)[C@@H]1O [Compound A100] | < 0.1 |
| CC(C)Oc1cccc(C#C[C@@]2(O)[C@@H](C#Cc3ccccc3)O[C@H](CO)[C@@H](O)[C@@H]2O)c1 [Compound A21] | 260 |
| CC(C)C(C)O[C@H]1O[C@H](CO)[C@@H](O)[C@H](O)[C@@]1(O)C#Cc1ccccc1 (stereo partly shown) [Compound A8] | 260 |
| OC[C@H]1O[C@H](C#Cc2cnn(C3CCCCC3O)c2)[C@](O)(C#Cc2ccccc2)[C@@H](O)[C@@H]1O (stereo partly shown) [Compound A69] | 16 |
| OC[C@H]1O[C@H](C#Cc2cnn(-c3cccc(Cl)c3)c2)[C@](O)(C#CC2CC2)[C@@H](O)[C@@H]1O [Compound A92] | 2 |

| Structure (SMILES) | EC90 [nM] |
| --- | --- |
| Cc1cccc(C#C[C@H]2O[C@H](CO)[C@@H](O)[C@H](O)[C@@]2(O)C#Cc2ccccc2)c1 [Compound A25] | 260 |
| CCC#C[C@@]1(O)[C@@H](C#Cc2cnn(-c3ccccc3)c2)O[C@H](CO)[C@@H](O)[C@@H]1O [Compound A87] | 32 |
| CC(C)n1cc(C#C[C@H]2O[C@H](CO)[C@@H](O)[C@H](O)[C@@]2(O)C#Cc2ccccc2)cn1 [Compound A39] | 8 |
| COCCOc1ccc(-n2cc(C#C[C@H]3O[C@H](CO)[C@@H](O)[C@H](O)[C@@]3(O)C#Cc3ccccc3)cn2)cc1 [Compound A102] | < 0.1 |
| CC(C)O[C@H]1O[C@H](CO)[C@@H](O)[C@H](O)[C@@]1(O)C#Cc1ccccc1 [Compound A6] | 1040 |
| CCC(C)n1cc(C#C[C@H]2O[C@H](CO)[C@@H](O)[C@H](O)[C@@]2(O)C#Cc2ccccc2)cn1 (stereo partly shown) [Compound A41] | 8 |
| Cc1cc(Br)ccc1O[C@H]1O[C@H](CO)[C@@H](O)[C@H](O)[C@@]1(O)C#Cc1ccccc1 [Compound A4] | 1040 |
| Cc1cccc(C#C[C@@]2(O)[C@@H](C#Cc3ccccc3)O[C@H](CO)[C@@H](O)[C@@H]2O)c1 [Compound A18] | 260 |
| CC(C)n1cc(C#C[C@@]2(O)[C@@H](C#Cc3ccccc3)O[C@H](CO)[C@@H](O)[C@@H]2O)ccc1=O [Compound A23] | 260 |
| OC[C@H]1O[C@H](C#Cc2cnn([C@H]3CC[C@H](O)CC3)c2)[C@](O)(C#Cc2ccc(F)cc2)[C@@H](O)[C@@H]1O [Compound A76] | 4 |
| OC[C@H]1O[C@H](OC2CCCCC2)[C@](O)(C#Cc2ccccc2)[C@@H](O)[C@@H]1O [Compound A12] | 260 |
| CNC(=O)c1cccc(-c2ccc(O[C@H]3O[C@H](CO)[C@@H](O)[C@H](O)[C@@]3(O)C#Cc3ccccc3)c(C)c2)c1 [Compound A1] | 8 |
| OC[C@H]1O[C@H](C#Cc2ccccc2)[C@](O)(C#Cc2cccc3ccccc23)[C@@H](O)[C@@H]1O [Compound A24] | 260 |
| OC[C@H]1O[C@H](C#Cc2cnn(-c3ccc(O[C@@H]4CCOC4)cc3)c2)[C@](O)(C#Cc2ccccc2)[C@@H](O)[C@@H]1O [Compound A103] | < 0.1 |
| [2H]C([2H])([2H])Oc1ccc(-n2cc(C#C[C@H]3O[C@H](CO)[C@@H](O)[C@H](O)[C@@]3(O)C#CC3CC3)cn2)cc1 [Compound A90] | < 0.1 |
| COc1ccc(-n2cc(C#C[C@H]3O[C@H](CO)[C@@H](O)[C@H](O)[C@@]3(O)C#Cc3cnn(C)c3)cn2)cc1 [Compound A82] | < 0.1 |
| Cn1cc(C#C[C@@]2(O)[C@@H](C#Cc3cnn(-c4cnn(C)c4)c3)O[C@H](CO)[C@@H](O)[C@@H]2O)cn1 [Compound A79] | 16 |
| Cc1nn(C)cc1C#C[C@H]1O[C@H](CO)[C@@H](O)[C@H](O)[C@@]1(O)C#Cc1ccccc1 [Compound A38] | 260 |
| OC[C@H]1O[C@H](C#Cc2ccccc2)[C@](O)(C#Cc2ccccc2)[C@@H](O)[C@@H]1O [Compound A17] | 130 |
| CCC(CC)O[C@H]1O[C@H](CO)[C@@H](O)[C@H](O)[C@@]1(O)C#Cc1ccccc1 [Compound A9] | 130 |
| CC(C)Oc1ccc(-n2cc(C#C[C@H]3O[C@H](CO)[C@@H](O)[C@H](O)[C@@]3(O)C#CC3CC3)cn2)cc1 [Compound A107] | < 0.1 |
| OC[C@H]1O[C@H](C#Cc2ccc3ccccc3c2)[C@](O)(C#Cc2ccccc2)[C@@H](O)[C@@H]1O [Compound A30] | 1040 |
| COc1ccc(-n2cc(C#C[C@H]3O[C@H](CO)[C@@H](O)[C@H](O)[C@@]3(O)C#CC3CC3)cn2)cc1 [Compound A97] | < 0.1 |
| OC[C@@H](O)COc1ccc(-n2cc(C#C[C@H]3O[C@H](CO)[C@@H](O)[C@H](O)[C@@]3(O)C#Cc3cnn(C[C@H](O)CO)c3)cn2)cc1 [Compound A91] | 8 |
